Data reported in ChEMBL document CHEMBL3351431, “Synthesis and evaluation of C2-carbon-linked heterocyclic-5-hydroxy-6-oxo-dihydropyrimidine-4-carboxamides as HIV-1 integrase inhibitors” (Bioorg Med Chem Lett, 2015).

Experiments:
[1] = target: Human immunodeficiency virus type 1 integrase (Human immunodeficiency virus 1, UniProt Q7ZJM1); experiment: Inhibition of HIV-1 integrase strand transfer activity
[2] = system: Human immunodeficiency virus 1; experiment: Antiviral activity against HIV1 infected in cell culture in presence of 10% FBS; assay type: functional, organism-based
[3] = system: Human immunodeficiency virus 1; experiment: Antiviral activity against HIV1 infected in cell culture in presence of 45 mg/ml human serum albumin and 10% FBS; assay type: functional, organism-based
[4] = Clearance in Sprague-Dawley rat at 1 mg/kg, iv; assay type: ADME, organism-based; design: dose 1 mg/kg, route intravenous; conditions: in vivo
[5] = Half life in Sprague-Dawley rat at 1 mg/kg, iv; assay type: ADME, organism-based; design: dose 1 mg/kg, route intravenous; conditions: in vivo
[6] = Volume of distribution at steady state in Sprague-Dawley rat at 1 mg/kg, iv; assay type: ADME, organism-based; design: dose 1 mg/kg, route intravenous; conditions: in vivo, read-out: Vdss
[7] = Cmax in Sprague-Dawley rat at 5 mg/kg, po; assay type: ADME, organism-based; design: dose 5 mg/kg, route oral; conditions: in vivo
[8] = Tmax in Sprague-Dawley rat at 5 mg/kg, po; assay type: ADME, organism-based; design: dose 5 mg/kg, route oral; conditions: in vivo
[9] = AUC in Sprague-Dawley rat at 5 mg/kg, po; assay type: ADME, organism-based; design: dose 5 mg/kg, route oral; conditions: plasma
[10] = Oral bioavailability in Sprague-Dawley rat at 5 mg/kg; assay type: ADME, organism-based; conditions: in vivo

Chain of Human immunodeficiency virus type 1 integrase (Q7ZJM1 whole entry): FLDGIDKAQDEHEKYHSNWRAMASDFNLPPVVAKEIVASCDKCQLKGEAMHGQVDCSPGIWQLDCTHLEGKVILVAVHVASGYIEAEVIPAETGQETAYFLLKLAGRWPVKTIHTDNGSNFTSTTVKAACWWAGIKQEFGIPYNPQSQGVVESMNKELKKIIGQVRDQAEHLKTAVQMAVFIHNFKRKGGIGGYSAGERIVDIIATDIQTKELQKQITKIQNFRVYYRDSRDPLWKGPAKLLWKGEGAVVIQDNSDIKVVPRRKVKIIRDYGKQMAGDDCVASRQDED

SMILES | IC50 [1] [nM] | EC50 [2] [nM] | EC50 [3] [nM] | clearance [4] [mL/min/kg] | half-life [5] [min] | Vd [6] [L/kg] | Cmax [7] [µM] | Tmax [8] [min] | AUC [9] [µM·h] | bioavailability [10] [%]
Cn1c(-c2ccco2)nc(C(=O)NCc2ccc(F)cc2)c(O)c1=O | 21 | 424 | 14500 | – | – | – | – | – | – | –
Cn1c(C2=CCOC2)nc(C(=O)NCc2ccc(F)cc2)c(O)c1=O | 19 | 206 | 1780 | – | – | – | – | – | – | –
Cn1c(C2CCOCC2)nc(C(=O)NCc2ccc(F)cc2)c(O)c1=O | 5 | 6 | 28 | 2.6 | 34.8 | 0.12 | – | – | – | –
Cn1c(C2CCOCC2)nc(C(=O)NCc2ccc(F)cc2S(C)(=O)=O)c(O)c1=O | 8 | 6 | 13 | 3.9 | 34.8 | 0.13 | – | – | – | –
CN(C)S(=O)(=O)c1cc(F)ccc1CNC(=O)c1nc(C2CCOCC2)n(C)c(=O)c1O | 12 | 4 | 15 | – | – | – | – | – | – | –
Cn1c(C2CCOCC2)nc(C(=O)NCc2ccc(F)cc2N2CCCCS2(=O)=O)c(O)c1=O | 11 | 4 | 11 | – | – | – | – | – | – | –
Cn1c(C2CCOCC2)nc(C(=O)NCc2ccc(F)cc2-n2cncn2)c(O)c1=O | 6 | 10 | 18 | – | – | – | – | – | – | –
Cc1ncnn1-c1cc(F)ccc1CNC(=O)c1nc(C2CCOCC2)n(C)c(=O)c1O | 8 | 9 | 14 | – | – | – | – | – | – | –
Cc1cnnn1-c1cc(F)ccc1CNC(=O)c1nc(C2CCOCC2)n(C)c(=O)c1O | 13 | 8 | 18 | – | – | – | – | – | – | –
Cn1ncnc1-c1cc(F)ccc1CNC(=O)c1nc(C2CCOCC2)n(C)c(=O)c1O | 9 | 4 | 7 | – | – | – | – | – | – | –
Cn1c(C2CCOCC2)nc(C(=O)NCc2ccc(F)cc2N2CCN(C(C)(C)C)S2(=O)=O)c(O)c1=O | 17 | 2 | 7 | 41 | 13.2 | 0.61 | – | – | – | –
CN1C(C)(C)CN(c2cc(F)ccc2CNC(=O)c2nc(C3CCOCC3)n(C)c(=O)c2O)S1(=O)=O | 6 | 2 | 7 | – | – | – | – | – | – | –
Cn1cnnc1-c1cc(F)ccc1CNC(=O)c1nc(C2CCOC2)n(C)c(=O)c1O (racemic) | 18 | 28 | 27 | – | – | – | – | – | – | –
Cn1c(C2CCOC2)nc(C(=O)NCc2ccc(F)cc2)c(O)c1=O (racemic) | 4 | 9 | 60 | 4.9 | 97.8 | 0.14 | 10.5 | 40.2 | 33.9 | 68
Cn1c(C2COCC2O)nc(C(=O)NCc2ccc(F)cc2)c(O)c1=O (racemic) | 6 | 48 | 126 | – | – | – | – | – | – | –
CSC1COCC1c1nc(C(=O)NCc2ccc(F)cc2)c(O)c(=O)n1C (racemic) | 3 | 7 | 33 | 3.6 | 64.8 | 0.15 | 8.04 | 100 | 39.5 | 67
Cn1c(C2(C)CCCO2)nc(C(=O)NCc2ccc(F)cc2)c(O)c1=O (racemic) | 5 | 10 | 120 | – | – | – | – | – | – | –
Cn1c(C2(C)CCCS2)nc(C(=O)NCc2ccc(F)cc2)c(O)c1=O (racemic) | 5 | 15 | 153 | – | – | – | – | – | – | –
Cn1c(C2CCCCO2)nc(C(=O)NCc2ccc(F)cc2)c(O)c1=O (racemic) | 10 | 49 | 301 | – | – | – | – | – | – | –
Cn1c(C2CCOC2)nc(C(=O)NCc2ccc(F)cc2S(C)(=O)=O)c(O)c1=O (racemic) | 9 | 14 | 33 | – | – | – | – | – | – | –
CN(C)S(=O)(=O)c1cc(F)ccc1CNC(=O)c1nc(C2CCOC2)n(C)c(=O)c1O (racemic) | 10 | 4 | 25 | – | – | – | – | – | – | –
Cn1c(C2CCOC2)nc(C(=O)NCc2ccc(F)cc2N2CCCCS2(=O)=O)c(O)c1=O (racemic) | 9 | 5 | 19 | 6 | 32.4 | 0.2 | 3.51 | 37.8 | 12.3 | 60
Cn1c(C2CCOC2)nc(C(=O)NCc2ccc(F)cc2-n2cncn2)c(O)c1=O (racemic) | 4 | 7 | 18 | 47 | 25.2 | 0.98 | – | – | – | –
Cc1ncnn1-c1cc(F)ccc1CNC(=O)c1nc(C2CCOC2)n(C)c(=O)c1O (racemic) | 12 | 14 | 18 | 37 | 13.8 | 0.76 | – | – | – | –
Cc1cnnn1-c1cc(F)ccc1CNC(=O)c1nc(C2CCOC2)n(C)c(=O)c1O (racemic) | 10 | 13 | 28 | – | – | – | – | – | – | –
Cn1ncnc1-c1cc(F)ccc1CNC(=O)c1nc(C2CCOC2)n(C)c(=O)c1O (racemic) | 6 | 5 | 11 | 12 | 30 | 0.36 | – | – | – | –
Cn1c(C2CCOC2)nc(C(=O)NCc2ccc(F)cc2N2CCN(C(C)(C)C)S2(=O)=O)c(O)c1=O (racemic) | 16 | 2 | 22 | 31 | 14.4 | 0.36 | – | – | – | –
CN1C(C)(C)CN(c2cc(F)ccc2CNC(=O)c2nc(C3CCOC3)n(C)c(=O)c2O)S1(=O)=O (racemic) | 10 | 2 | 22 | – | – | – | – | – | – | –
CN1CCN(c2cc(F)ccc2CNC(=O)c2nc(C3CCOC3)n(C)c(=O)c2O)C1=O (racemic) | 6 | 7 | 30 | – | – | – | – | – | – | –
COCCN1CCN(c2cc(F)ccc2CNC(=O)c2nc(C3CCOC3)n(C)c(=O)c2O)C1=O (racemic) | 3 | 5 | 27 | 15 | 27.6 | 0.44 | – | – | – | –
